According to patent publication US20150362491A1, “METHODS AND ASSAYS RELATING TO RNF216” (THE GENERAL HOSPITAL CORPORATION, priority 2013, published 2015):

What was measured:
[1] = test system: zebrafish embryos; experiment: zebrafish embryo morpholino knock-down and human mRNA rescue phenotyping; assay type: in vivo; conditions: for organization of the cerebellum (axonal tracts) / size of the optic tectum: 3 d.p.f., anti-α acetylated tubulin staining
Experimental: Zebrafish Investigation. All experiments were carried out with the approval of the Institutional Animal Care and Use Committee. Morpholino oligos (MO) for silencing of zebrafish rnf216 and otud4 were injected either alone or with wild-type (WT) or mutant human mRNA for RNF216, OTUD4, or both.
Morpholino oligonucleotide design. Morpholino oligos were obtained from Gene Tools, LLC (Philomath, Oreg., USA). Reciprocal BLAST against the zebrafish genome identified a sole zebrafish ortholog of […] (ENSDARG00000087893, 59% similarity, 46% identity). The antisense MO used for the silencing of zebrafish rnf216 targeted the intron 5′ donor splice site of the gene: […] (SEQ ID NO: 7).
(§1) Similar to rnf216, a sole ortholog of the human transcript for OTUD4 was identified in zebrafish (73% similarity, 61% identity). […] The MO for otud4 targeted the donor splice site of intron 2: […] (SEQ ID NO: 8).
Zebrafish embryo injections. Zebrafish were maintained and mated according to standard procedures.^49 Wild-type zebrafish embryos were injected at the 1-4 cell stage with 1 nl diluted MO and 0.5% phenol red. A dose of 6 ng of rnf216 or otud4-targeting MO was used as it gave the best rate of silencing and the minimum rate of mortality among the tested working dilutions (4-10 ng). For the epistatic interaction experiments, a cocktail containing 6 ng each of rnf216- and otud4-targeting MO was used.
For RNA rescue experiments, human wild-type or mutant RNF216 (NM_207116.2) and OTUD4 (NM_001102653.1) were cloned into the pCS2+ expression vector and transcribed in vitro using the SP6 Message Machine Kit (Ambion) to produce capped mRNA, and 200 pg of mRNA was injected for the rescue experiments.
(§2) Zebrafish embryo phenotyping. Injected embryos were scored at 3 days post fertilization for microphthalmia by measuring the area of the eye cup. For immunofluorescence studies, embryos were fixed in Dent's fixative (80% methanol, 20% dimethylsulfoxide) overnight at 4° C. After rehydration with decreasing series of methanol in PBS, the embryos were washed with PBS, permeabilized with 10 μg/ml proteinase K, and postfixed with 4% PFA. Embryos were then washed twice with IF buffer (0.1% Tween-20, 1% BSA in 1×PBS) for 10 min at room temperature. After incubation in blocking solution (10% FBS, 1% BSA in 1×PBS) for 1 h at room temperature, embryos were incubated with anti-α acetylated tubulin (1:1000; T7451, Sigma-Aldrich), overnight at 4° C. After two washes in IF buffer for 10 min, embryos were incubated with Alexa Fluor goat anti-mouse IgG (1:1000; A21207, A11001, Invitrogen) for 1 h at room temperature. Image acquisition and analysis was performed using Nikon NIS-Elements Advanced Research software. For each test, 50-100 embryos were injected and scored by two investigators who were blind to the injection cocktail. All experiments were performed 2-3 times and statistical significance was calculated using Student's t-test.

[2] = test system: rnf216 and rnf216+otud4 (DMO) morphants; experiment: in vivo zebrafish assay of neuronal survival and degeneration, SFN co-injected into morphants; conditions: for morphants with optic tectum defects: 3 dpf
Experimental: Zebrafish embryo injections. Zebrafish were maintained and mated according to standard procedures.^49 Wild-type zebrafish embryos were injected at the 1-4 cell stage with 1 nl diluted MO and 0.5% phenol red. […] For the epistatic interaction experiments, a cocktail containing 6 ng each of rnf216- and otud4-targeting MO was used.
as §2
This hypothesis will be tested in Rnf216^−/− and Otud4^−/− mice.

[3] = test system: pituitary response to GnRH; conditions: Subject 3, cited from earlier work
[4] = test system: pituitary response to GnRH; experiment: reproductive endocrine phenotyping with exogenous GnRH; assay type: in vivo, human
Experimental: Reproductive Endocrine Phenotyping. Subjects 2, 6, and 8 underwent blood sampling every 10-15 minutes for 3.25-12 h to examine the frequency, amplitude, and morphology of endogenous GnRH-induced luteinizing hormone (LH) pulse patterns. Pulses of LH secretion were identified using a modified version of the method of Santen and Bardin.^45-46 Subjects 1, 2, 6, and 8 received exogenous, pulsatile GnRH with monitoring of gonadotropin responses as described previously.^47-48 Hormone assays were performed as described in ref 48; the Second International Reference Preparation was used as the standard for LH and FSH.

[5] = test system: otud4 endogenous transcript; experiment: efficiency of the morpholinos (splicing of endogenous transcript, gel); assay type: in vivo, zebrafish; conditions: otud4 MO 4-10 ng; intron 5 retained
Experimental: FIG. 8B depicts a gel of the results of injection of the otud4 MO (4-10 ng), which reduces normal splicing of the endogenous transcript by 90% and favors aberrant splicing resulting in a transcript where intron 5 (73 bp in size) is retained.
as §1

[6] = treatment of rnf216 and DMO morphants with SFN

In the case of “human RNF216 mRNA: capped wild-type human RNF216 (NM—207116.2) mRNA transcribed in vitro, 200 pg injected”, the “rescue of the phenotypes induced by double MO injection” value ([1]; co-injection of mRNA with double MO) is reported as “rescued all phenotypes” and the “rescue of the tectal phenotype” value ([1]; co-injection of mRNA with rnf216 MO) is reported as “fully rescued”.
With `C[S@@+]([O-])CCCCN=C=S` [SFN, 1-isothio-cyanato-4(R)-methylsulfinylbutane] the “morphants with optic tectum defects” value ([2]; DMO (rnf216+otud4) morphants co-injected with SFN, from 41% without SFN, p<0.001) was 15%, the cerebellar disorganization phenotype ([2]; co-injection of SFN with DMO) was “failed to ameliorate” and the cerebellar disorganization phenotype ([2]; co-injection of SFN with rnf216 MO) was “failed to ameliorate”. For the same compound, the “morphants with optic tectum defects” value ([2]; rnf216 morphants co-injected with SFN, from 32% without SFN, p<0.001) was 15%, the “cerebellar degeneration phenotype (FIG. 10E)” value [2, 6] was “not the cerebellar degeneration phenotype” and the “optic tectum phenotype (FIG. 10D)” value [2, 6] was “rescues the optic tectum phenotype”.
In the case of “gonadotropin-releasing hormone (QHWSYGLRPG; Gonadoliberin-1; UniProt P01148 24-33, looked up) [GnRH]”, the “LH after GnRH” value ([3]; 90 min after GnRH, baseline 0.06 IU/L) is given as 5.8 IU/L, the “FSH after GnRH” value ([3]; 120 min, baseline 0.14 IU/L) is given as 2.0 IU/L and the “LH response to exogenous GnRH at a standard dose” value ([4]; Subject 6) is given as “immediate robust increase in LH”. The testicular volumes ([4]; Subject 8, exogenous pulsatile GnRH 25 to 600 ng/kg q2 h over 2 y, from 2 mL) was 8 mL and the “gonadotropin responses to pulsatile exogenous GnRH over 7 days” value ([4]; Subjects 1 and 2, bedridden, late in the course of disease) was “failed to exhibit gonadotropin responses”.
For “otud4 MO: splice-blocking morpholino against zebrafish otud4: TACCCGAAGGAATTTGCGCACCATT (SEQ ID NO: 8) (all phosphorodiamidate morpholino (PMO))”, the “reduction of normal splicing of the endogenous transcript” value [5] was 90%, the “organization of the cerebellum (axonal tracts)” value [1] was “cerebellar defects” and the “size of the optic tectum” value [1] was “reduction in size of the optic tectum”.
In the case of “rnf216 MO: antisense morpholino silencing zebrafish rnf216, donor splice site: CAGAAAATAGTTTGTGCTTACACAT (SEQ ID NO: 7) (all phosphorodiamidate morpholino (PMO))”, the “morphants with optic tectum defects” value ([2]; morphants without SFN) is reported as 32%, the “organization of the cerebellum (axonal tracts)” value [1] is reported as “disorganization of axonal tracts in the cerebellum” and the “size of the optic tectum” value [1] is reported as “reduction in size of the optic tectum”.
